Values joined by “and” are separate entries in the source; they are usually repeats but may differ in a detail not shown here. Identical values can stand only once.
Tests used:
[1] = Tolerability in normal male C57BL/6 non-tumor-bearing mice (Example 47); type: in vivo, mouse; conditions: for Ataxia: n=5
Method: Treatments were administered intravenously on a q7dx2 schedule, i.e., two treatments seven days apart (the first treatment was on Day one). The study ended on Day 14, six days after the 2nd treatment. Blood was collected for complete blood count (CBC) and serum chemistry. Leg muscles were collected so that nerve degeneration could be assessed from the sciatic nerve.

B16.F10 tumor = assay: Efficacy and tolerability in B16.F10 murine melanoma model (Example 43); type: in vivo, mouse
Method: Refer to table for detailed description of formulations.
Tumor volume was calculated with the following equation: (width×width×length)/2 mm^3.

[2] = 15 mg/kg IV q3dq4dx3, listed as Docetaxel
[3] = 15 mg/kg IV three times, once every week

## CC(=O)O[C@@]12CO[C@@H]1C[C@H](O)[C@@]1(C)C(=O)[C@H](O)C3=C(C)[C@@H](OC(=O)[C@H](O)[C@@H](NC(=O)OC(C)(C)C)c4ccccc4)C[C@@](O)([C@@H](OC(=O)c4ccccc4)[C@H]21)C3(C)C [Free docetaxel, docetaxel]
[1]; 30 mg/kg IV q7dx2
  Body weight above initial on Day 14: 3%
[1]; 30 mg/kg q7dx2
  Mice developing ataxia: no mice
  Ataxia: 0%
[1]; 30 mg/kg q7dx2, Day 14
  Lymphocyte mean: 4350 cells/μL
  Neutrophil mean: 556 cells/μL
  WBC # mean: 5.1 ×1000 cells/μL
[1]; 45 mg/kg IV q7dx2
  Body weight above initial on Day 14: 2%
[1]; 45 mg/kg q7dx2, Day 14
  Lymphocyte mean: 6780 cells/μL
  Mice developing ataxia: One mouse
  Neutrophil mean: 752 cells/μL
  WBC # mean: 7.8 ×1000 cells/μL
[1]; 45 mg/kg q7dx2
  Ataxia: 20%
[1]; 60 mg/kg IV q7dx2, Day 14
  Weight loss after second treatment, by end of study: 19%
[1]; 60 mg/kg q7dx2
  Mice developing ataxia: Five out of five mice
  Ataxia: 100%
[1]; 60 mg/kg q7dx2, Day 14
  Lymphocyte mean: 5590 cells/μL
  Neutrophil mean: 470 cells/μL
  WBC # mean: 6.2 ×1000 cells/μL
[1]; q7dx2
  Effect on serum chemistry parameters: did not affect any serum chemistry parameter at doses up to 60 mg/kg
B16.F10 tumor; 15 mg/kg IV q3dq4dx3
  Tumor growth inhibition (TGI): 90%
B16.F10 tumor; [2]
  Maximum body weight loss: 11% and 12%
  Tumor growth delay (TGD): 11 days and 12 days
B16.F10 tumor; 15 mg/kg IV q4dq3dx3
  Maximum body weight loss: 11%
  Tumor growth delay (TGD): 11 days
  Tumor growth inhibition (TGI): 90%
B16.F10 tumor; [3]
  Maximum body weight loss: 11%
  Tumor growth delay (TGD): 11 days
  Tumor growth inhibition (TGI): approximately 90%
B16.F10 tumor; 30 mg/kg IV q7dx3
  Maximum body weight loss: 11%
  Tumor growth delay (TGD): 17 days
  Tumor growth inhibition (TGI): 90%
B16.F10 tumor; 30 mg/kg q7dx3
  Day tumor volume end point (3000 mm^3) reached: 37 days
B16.F10 tumor; 60 mg/kg IV q14dx2
  Tumor growth delay (TGD): 11 days
  Tumor growth inhibition (TGI): 71%
B16.F10 tumor; 60 mg/kg IV q14dx2, listed as Docetaxel
  Maximum body weight loss: 0%
B16.F10 tumor; 60 mg/kg IV q14dx2, listed as docetaxel
  Maximum body weight loss: did not show any body weight loss
B16.F10 tumor; 60 mg/kg q14dx2
  Day tumor volume end point (3000 mm^3) reached: 29 days
